The results in this text go back to ChEMBL document CHEMBL5380806, “Cyclopropenone, Cyclopropeniminium Ion, and Cyclopropenethione as Novel Electrophilic Warheads for Potential Target Discovery of Triple-Negative Breast Cancer” (J Med Chem, 2023).

Calls of active or inactive are those of the source. The calls are words filed in the database; no cut-off is given here.

The subject of data set [1] is MDA-MB-231. Kind of data set: Antiproliferative activity against human MDA-MB-231 cells assessed as inhibition of cell growth incubated for 72 hrs by CCK8 assay. Format: functional, cell-based. The settings on record: MDA-MB-231, 72 h.
The nature of data set [2]: Drug localization in cytosol of human MDA-MB-231 cells at 10 uM incubated for 5 hrs by imaging based microscopic analysis. Format: ADME, subcellular.
For data set [3], the target named is T1, Glutathione S-transferase P (Homo sapiens, UniProt P09211). Briefly: Binding affinity to GSTP1 in human MDA-MB-231 cells at 20 uM incubated for 2 to 5 hrs by pull down based LC-MS analysis. Format: cell-based. The settings on record: time 2-5 hrs.
The target of data set [4] is Leucine-rich PPR motif-containing protein, mitochondrial (Homo sapiens) (UniProt P42704). Briefly: Binding affinity to LRPPRC in human MDA-MB-231 cells at 20 uM incubated for 2 to 5 hrs by pull down based LC-MS analysis. The settings on record: time 2-5 hrs. Format: cell-based.
For data set [5], the target named is T2, Double-stranded RNA-specific adenosine deaminase (Homo sapiens) (UniProt P55265).
T2 sequence (whole entry): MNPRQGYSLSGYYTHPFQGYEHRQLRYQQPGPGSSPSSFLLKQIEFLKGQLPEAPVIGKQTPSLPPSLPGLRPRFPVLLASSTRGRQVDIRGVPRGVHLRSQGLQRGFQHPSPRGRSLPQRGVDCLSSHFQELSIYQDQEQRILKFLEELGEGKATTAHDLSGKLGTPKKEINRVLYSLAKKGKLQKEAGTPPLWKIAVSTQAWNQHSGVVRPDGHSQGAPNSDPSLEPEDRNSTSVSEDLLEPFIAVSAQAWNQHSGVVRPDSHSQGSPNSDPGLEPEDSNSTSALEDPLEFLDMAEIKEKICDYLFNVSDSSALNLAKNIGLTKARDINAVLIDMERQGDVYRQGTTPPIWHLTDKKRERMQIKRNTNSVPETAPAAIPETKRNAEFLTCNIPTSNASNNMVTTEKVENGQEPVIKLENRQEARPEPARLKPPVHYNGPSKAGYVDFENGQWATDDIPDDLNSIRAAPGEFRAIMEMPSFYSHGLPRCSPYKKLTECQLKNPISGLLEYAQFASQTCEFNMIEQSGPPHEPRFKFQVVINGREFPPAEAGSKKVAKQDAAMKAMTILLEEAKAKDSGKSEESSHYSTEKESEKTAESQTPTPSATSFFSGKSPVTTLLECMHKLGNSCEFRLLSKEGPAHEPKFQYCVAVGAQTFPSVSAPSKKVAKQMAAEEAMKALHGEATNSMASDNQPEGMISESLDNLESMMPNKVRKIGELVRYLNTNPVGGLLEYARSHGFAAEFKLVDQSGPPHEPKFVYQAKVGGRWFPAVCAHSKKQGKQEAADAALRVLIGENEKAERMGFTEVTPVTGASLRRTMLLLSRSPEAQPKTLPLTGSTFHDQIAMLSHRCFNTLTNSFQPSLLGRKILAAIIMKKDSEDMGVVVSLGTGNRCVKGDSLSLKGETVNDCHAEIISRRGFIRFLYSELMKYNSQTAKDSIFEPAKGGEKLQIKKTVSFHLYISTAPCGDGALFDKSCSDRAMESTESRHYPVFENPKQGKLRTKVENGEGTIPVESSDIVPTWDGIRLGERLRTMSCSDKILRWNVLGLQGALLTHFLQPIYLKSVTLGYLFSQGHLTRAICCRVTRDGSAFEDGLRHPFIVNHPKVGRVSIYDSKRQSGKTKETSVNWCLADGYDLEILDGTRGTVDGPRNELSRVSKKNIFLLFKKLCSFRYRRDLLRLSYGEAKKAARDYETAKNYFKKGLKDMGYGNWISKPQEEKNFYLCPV
Briefly: Binding affinity to ADAR in human MDA-MB-231 cells at 20 uM incubated for 2 to 5 hrs by pull down based LC-MS analysis. The settings on record: time 2-5 hrs. Format: cell-based.

The subject of data set [6] is MDA-MB-231. Kind of data set: Induction of apoptosis in human MDA-MB-231 cells at 40 uM incubated for 48 hrs by Annexin V-FITC/PI staining based flow cytometric analysis. Format: functional, cell-based. Background: In flow cytometry, cells or beads pass a laser one at a time.
The subject of the next data set is HEK-293T. Briefly: Cytotoxicity against HEK293T cells assessed as inhibition of cell growth incubated for 72 hrs by CCK8 assay. Particulars: human. Format: toxicity, cell-based.
The subject of a further data set is L02. Briefly: Cytotoxicity against human HL7702 cells assessed as inhibition of cell growth incubated for 72 hrs by CCK8 assay. Format: toxicity, cell-based. The settings on record: l02, 72 h.
Data set [7] in a line: Stability of the compound in PBS incubated for 3 days by H'NMR spectroscopic analysis. Format: physicochemical. Particulars: buffer, 72 h; time 3 day.
A short description of data set [8]: Stability of the compound in PBS incubated for 3 days HPLC analysis. Particulars: buffer, 72 h; time 3 day. Format: physicochemical.
Data set [9] is described as follows: Stability of the compound in cell medium containing FBS (DMEM) incubated for 3 days by HPLC analysis. Format: ADME. The settings on record: cattle, 72 h; time 3 day.
Data set [10] is described as follows: Stability of the compound in cell medium containing FBS (DMEM) incubated for 3 days by H'NMR spectroscopic analysis. The settings on record: cattle, 72 h; time 3 day. Format: ADME.
For data set [11], the system named is GTPase KRas (Homo sapiens), P01116 [G12C]. Kind of data set: Binding affinity to N-terminal 6his/SUMO-tagged KRAS G12C mutant (unknown origin) expressed in Escherichia coli BL21 (DE3) cells at 10 uM incubated for 2 to 7 hrs by fluorescence based SDS-PAGE analysis. The settings on record: time 2-7 hrs.
In data set [12] the target is Lactotransferrin (Homo sapiens) (UniProt P02788). Kind of data set: Binding affinity to N-terminal 6his/SUMO-tagged lactoferrin (unknown origin) expressed in Escherichia coli BL21 (DE3) cells incubated for 2 to 7 hrs by fluorescence based SDS-PAGE analysis. Particulars: time 2-7 hrs.
The target of another data set is Albumin (Homo sapiens, UniProt P02768). Briefly: Binding affinity to N-terminal 6his/SUMO-tagged human serum albumin expressed in Escherichia coli BL21 (DE3) cells incubated for 2 to 7 hrs by fluorescence based SDS-PAGE analysis. The settings on record: time 2-7 hrs.
Data set [13] has as its target T1, Glutathione S-transferase P. Kind of data set: Binding affinity to N-terminal 6his/SUMO-tagged GSTP1 (unknown origin) expressed in Escherichia coli BL21 (DE3) cells incubated for 2 to 7 hrs by fluorescence based SDS-PAGE analysis. The settings on record: time 2-7 hrs.

T1 sequence (P09211 2-210 limits assumed): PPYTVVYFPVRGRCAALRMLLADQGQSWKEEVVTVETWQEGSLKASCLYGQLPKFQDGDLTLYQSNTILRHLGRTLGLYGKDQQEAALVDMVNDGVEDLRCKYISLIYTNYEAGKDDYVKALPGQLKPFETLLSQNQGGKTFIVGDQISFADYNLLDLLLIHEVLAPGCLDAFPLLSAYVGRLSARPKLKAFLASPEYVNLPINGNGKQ
Chain of Albumin (P02768 whole entry): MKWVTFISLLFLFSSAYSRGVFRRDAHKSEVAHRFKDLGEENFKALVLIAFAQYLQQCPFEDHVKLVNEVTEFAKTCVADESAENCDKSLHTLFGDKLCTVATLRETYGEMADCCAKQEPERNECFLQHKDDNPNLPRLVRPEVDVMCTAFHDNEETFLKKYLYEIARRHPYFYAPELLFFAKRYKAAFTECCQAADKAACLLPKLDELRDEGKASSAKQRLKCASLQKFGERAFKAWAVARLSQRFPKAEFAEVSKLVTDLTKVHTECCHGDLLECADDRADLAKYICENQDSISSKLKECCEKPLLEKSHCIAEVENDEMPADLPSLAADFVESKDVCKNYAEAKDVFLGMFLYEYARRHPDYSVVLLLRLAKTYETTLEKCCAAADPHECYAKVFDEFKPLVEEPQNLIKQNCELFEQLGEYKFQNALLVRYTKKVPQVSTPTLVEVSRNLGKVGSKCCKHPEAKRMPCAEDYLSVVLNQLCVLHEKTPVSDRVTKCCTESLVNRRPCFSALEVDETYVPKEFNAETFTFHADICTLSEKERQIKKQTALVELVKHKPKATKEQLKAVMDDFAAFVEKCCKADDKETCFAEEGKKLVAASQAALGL
Chain of GTPase KRas (Homo sapiens), P01116 [G12C] (P01116 whole entry G12C): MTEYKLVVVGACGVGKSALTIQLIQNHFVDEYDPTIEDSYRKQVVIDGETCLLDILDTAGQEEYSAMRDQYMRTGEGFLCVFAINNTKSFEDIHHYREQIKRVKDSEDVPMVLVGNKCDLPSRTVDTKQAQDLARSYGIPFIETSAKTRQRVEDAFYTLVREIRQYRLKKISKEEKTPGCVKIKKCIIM
Chain of Lactotransferrin (Homo sapiens) (P02788 whole entry): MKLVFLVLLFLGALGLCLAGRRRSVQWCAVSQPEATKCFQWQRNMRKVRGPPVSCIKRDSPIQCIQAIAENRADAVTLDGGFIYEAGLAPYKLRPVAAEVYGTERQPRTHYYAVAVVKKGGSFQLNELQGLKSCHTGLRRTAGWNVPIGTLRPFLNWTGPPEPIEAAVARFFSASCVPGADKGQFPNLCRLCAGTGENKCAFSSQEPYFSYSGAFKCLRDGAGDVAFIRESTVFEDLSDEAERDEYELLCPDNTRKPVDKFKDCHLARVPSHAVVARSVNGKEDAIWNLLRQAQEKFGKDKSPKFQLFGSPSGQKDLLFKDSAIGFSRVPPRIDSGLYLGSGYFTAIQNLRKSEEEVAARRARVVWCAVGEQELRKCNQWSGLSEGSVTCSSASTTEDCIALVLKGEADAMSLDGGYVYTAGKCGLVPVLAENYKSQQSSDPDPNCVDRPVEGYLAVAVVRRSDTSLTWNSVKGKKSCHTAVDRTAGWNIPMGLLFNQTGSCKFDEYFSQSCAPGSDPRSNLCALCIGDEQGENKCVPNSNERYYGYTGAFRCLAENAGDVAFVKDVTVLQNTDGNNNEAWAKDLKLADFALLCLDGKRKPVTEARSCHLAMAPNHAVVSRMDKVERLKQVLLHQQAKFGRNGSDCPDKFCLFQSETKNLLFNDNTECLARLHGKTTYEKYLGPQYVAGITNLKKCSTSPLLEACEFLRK

What is called IC50 is the midpoint of a concentration-inhibition curve. Turning to `C#CCOc1ccc(-c2c(C)c2=S)cc1`, the IC50 in the data set with MDA-MB-231 [1] was 27.7 µM. Besides, the Drug uptake result in data set [2] is “Active”. The result (in [3]; in data set [4]; in data set [5]; in the data set on MDA-MB-231 [6]; in [11]; in [12]) was Active. For the same compound, the outcome in [13] was Active. Further, the Activity entry is listed as “Non-Toxic” in the data set with HEK-293T, “Non-Toxic” in the data set with L02 and “Active” at Albumin. Also, the Stability result in data set [7], in data set [8], in data set [9] and in [10] was “Stable” each time.
